Key:
Format in all cases: cell-based
TYK2 [1] = target: T1, TYK2 (Homo sapiens, UniProt P29597); assay: TYK2 degradation MSD assay in EBV-B cells; parameters: endogenous in cells; host or cells: EBV-B cells; conditions: 4 to 24 hours incubation, read-out: TYK2 MSD DC50 rating in EBV-B
Method: (§1) Example 3. TYK2 Degradation MSD Assay in EBV-B, OCI-LY10, and Human PBMC Cells
(§2) Degradation of TYK2 in cells was quantitatively measured using Meso Scale Discovery (MSD) technology. EBV-B, OCI-LY10 or human PBMC cells were seeded in 96-well plates with a density of 0.4 million cells per well in 100 μl fresh media. Compounds were then added to the assay plates with a final top concentration of 1 to 10 μM in a 1:3 dilution series with total of 9 doses. The assay plates were then incubated for 4 to 24 hours at 37° C. under 5% CO2. The assay plates were then centrifuged for 5 minutes, and the cell pellets were treated with 100 μl/well RIPA lysis buffer (Boston Bioproducts, BP-115D) with protease and phosphatase inhibitors (Roche, 05892791001 and 04906837001). To prepare MSD assay plates (MSD, L15XA), the plates were coated with the capture antibody (Santa Cruz Biotechnology, SC-5271) in PBS, at 40 μl/well. The plates were then incubated overnight at 4° C., washed 3 times with 150 μl/well TBST buffer (Cell Signaling Technology, 9997S) and blocked with 150 μl/well blocking buffer (MSD, R93BA-4). Cell lysates were then added to MSD assay plates and the plates were incubated at room temperature for 1 hour. The plates were then washed 3 times with 150 μl/well TBST buffer and 25 μl/well primary detection antibody (Cell Signaling Technology, #9312). The assay plates were then incubated at room temperature for 1 hour, washed 3 times with 150 μl/well TBST buffer, and 25 μl/well secondary detection antibody, SULFO-TAG anti-rabbit antibody (MSD, R32AB-1) were added. The assay plates were then incubated at room temperature for 1 hour, washed 3 times with 150 μl/well TBST buffer, and 150 μl/well MSD reading buffer (MSD, R92TC-2) were added. The plates were then analyzed by an MSD reader. The data was analyzed by GraphPad Prism and the dose dependent TYK2 degradation was fit using the four-parameter inhibitor vs. response nonlinear regression. The DC50 data were measured and categorized into different levels in Table H. The compound with DC50 less than or equal to 1 nM is marked as A, with DC50 more than 1 nM and less than or equal to 10 nM is marked as B, with DC50 more than 10 nM and less than or equal to 100 nM is marked as C, and with DC50 more than 100 nM or not available is marked as D.

TYK2 [2] = target: T1, TYK2; assay: TYK2 degradation MSD assay in OCI-LY10 cells; parameters: endogenous in cells; host or cells: EBV-B cells; conditions: 4 to 24 hours incubation, read-out: TYK2 MSD DC50 rating in OCI-LY10
Method: as §1, §2

TYK2 [3] = target: T1, TYK2; assay: TYK2 degradation MSD assay in human PBMC cells; parameters: endogenous in cells; host or cells: human PBMC; conditions: 4 to 24 hours incubation, read-out: TYK2 MSD DC50 rating in human PBMC
Method: as §1, §2

T1 sequence (P29597 whole entry): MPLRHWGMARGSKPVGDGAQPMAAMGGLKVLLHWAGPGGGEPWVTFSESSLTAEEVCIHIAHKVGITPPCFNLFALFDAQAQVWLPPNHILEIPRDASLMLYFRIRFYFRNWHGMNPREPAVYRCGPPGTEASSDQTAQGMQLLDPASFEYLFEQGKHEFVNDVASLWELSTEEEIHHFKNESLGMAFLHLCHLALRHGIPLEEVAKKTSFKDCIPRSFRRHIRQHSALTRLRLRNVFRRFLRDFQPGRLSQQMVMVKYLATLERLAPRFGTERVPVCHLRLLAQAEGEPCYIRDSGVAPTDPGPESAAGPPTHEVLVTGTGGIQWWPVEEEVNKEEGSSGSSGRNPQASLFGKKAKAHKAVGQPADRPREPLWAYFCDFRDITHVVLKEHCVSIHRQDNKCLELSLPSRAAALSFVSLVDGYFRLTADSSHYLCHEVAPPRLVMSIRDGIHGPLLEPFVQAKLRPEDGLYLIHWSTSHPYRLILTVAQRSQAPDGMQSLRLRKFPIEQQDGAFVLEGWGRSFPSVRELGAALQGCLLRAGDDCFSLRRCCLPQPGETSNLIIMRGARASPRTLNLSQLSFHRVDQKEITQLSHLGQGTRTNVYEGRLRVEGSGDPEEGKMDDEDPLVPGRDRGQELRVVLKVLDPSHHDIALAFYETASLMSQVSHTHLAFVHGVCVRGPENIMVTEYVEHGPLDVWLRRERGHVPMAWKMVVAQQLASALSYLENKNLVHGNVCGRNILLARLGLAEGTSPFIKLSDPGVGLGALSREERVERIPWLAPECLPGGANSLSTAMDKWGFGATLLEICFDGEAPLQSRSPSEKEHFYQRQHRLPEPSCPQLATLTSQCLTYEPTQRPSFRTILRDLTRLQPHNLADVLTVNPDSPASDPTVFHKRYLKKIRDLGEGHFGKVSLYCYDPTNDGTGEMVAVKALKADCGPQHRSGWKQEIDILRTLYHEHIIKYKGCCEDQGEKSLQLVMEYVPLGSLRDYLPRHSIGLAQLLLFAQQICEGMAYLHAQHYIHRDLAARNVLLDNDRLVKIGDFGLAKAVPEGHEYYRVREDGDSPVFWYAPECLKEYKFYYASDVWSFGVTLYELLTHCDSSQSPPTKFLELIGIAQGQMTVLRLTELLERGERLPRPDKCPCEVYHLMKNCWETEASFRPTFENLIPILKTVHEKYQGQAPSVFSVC

DC50 (TYK2 [1]) [nM]	DC50 (TYK2 [2]) [nM]	DC50 (TYK2 [3]) [nM]	Structure (SMILES)
< 1	> 100	> 100	CNC(=O)c1cnc(Nc2ccc(CN(C)CCCOC3CCN(c4ccc5c(c4)n(C)c(=O)n5C4CCC(=O)NC4=O)CC3)cn2)cc1Nc1cccc(-c2ncc(F)cn2)c1OC (stereo not drawn) [Example K157]
< 1	> 100	> 100	CNC(=O)c1cnc(Nc2ccc(CN(C)CCCOC3CC(c4cccc5c4n(C)c(=O)n5C4CCC(=O)NC4=O)C3)cn2)cc1Nc1cccc(-c2ncc(F)cn2)c1OC (stereo not drawn) [Example K158]
< 1	> 100	> 100	CNC(=O)c1cnc(Nc2ccc(CN3CCC(OC4CC(c5ccc6c(c5)n(C)c(=O)n6C5CCC(=O)NC5=O)C4)CC3)cn2)cc1Nc1cccc(-c2ncc(F)cn2)c1OC (stereo not drawn) [Example K159]
< 1	> 100	> 100	CNC(=O)c1cnc(Nc2ccc(CN(C)C3CCCN(c4ccc5c(c4)n(C)c(=O)n5C4CCC(=O)NC4=O)C3)cn2)cc1Nc1cccc(-c2ncc(F)cn2)c1OC (stereo not drawn) [Example K160]
1 to 10	> 100	> 100	CNC(=O)c1cnc(Nc2ccc(CN(C)C3CCCN(c4cccc5c4n(C)c(=O)n5C4CCC(=O)NC4=O)C3)cn2)cc1Nc1cccc(-c2ncc(F)cn2)c1OC (stereo not drawn) [Example K162]
> 100	> 100	> 100	CNC(=O)c1cnc(Nc2ccc(CN3CC(N(C)c4ccc5c(c4)n(C)c(=O)n5C4CCC(=O)NC4=O)C3)cn2)cc1Nc1cccc(-c2ncc(F)cn2)c1OC (stereo not drawn) [Example K163]
< 1	> 100	> 100	CNC(=O)c1cnc(Nc2ccc(CN3CCC(N(C)c4ccc5c(c4)n(C)c(=O)n5C4CCC(=O)NC4=O)C3)cn2)cc1Nc1cccc(-c2ncc(F)cn2)c1OC (stereo not drawn) [Example K164]
< 1	> 100	> 100	CNC(=O)c1cnc(Nc2ccc(CN3CCC(c4ccc5c(c4)n(C)c(=O)n5C4CCC(=O)NC4=O)C3)cn2)cc1Nc1cccc(-c2ncc(F)cn2)c1OC (stereo not drawn) [Example K166]
< 1	> 100	> 100	CNC(=O)c1cnc(Nc2ccc(CN3CCC(c4cccc5c4n(C)c(=O)n5C4CCC(=O)NC4=O)CC3)cn2)cc1Nc1cccc(-c2ncc(F)cn2)c1OC (stereo not drawn) [Example K167]
> 100	> 100	> 100	CNC(=O)c1cnc(Nc2ccc(CN3CCCC(c4ccc5c(c4)n(C)c(=O)n5C4CCC(=O)NC4=O)C3)cn2)cc1Nc1cccc(-c2ncc(F)cn2)c1OC (stereo not drawn) [Example K168]
< 1	> 100	> 100	CNC(=O)c1cnc(Nc2ccc(CN(C)C3CCN(c4ccc5c(c4)n(C)c(=O)n5C4CCC(=O)NC4=O)C3)cn2)cc1Nc1cccc(-c2ncc(F)cn2)c1OC (stereo not drawn) [Example K170]
< 1	> 100	> 100	CNC(=O)c1cnc(Nc2ccc(CN(C)C3CCN(c4cccc5c4n(C)c(=O)n5C4CCC(=O)NC4=O)C3)cn2)cc1Nc1cccc(-c2ncc(F)cn2)c1OC (stereo not drawn) [Example K171]
< 1	> 100	> 100	CNC(=O)c1cnc(Nc2ccc(CN3CCC(c4ccc5c(c4)n(C)c(=O)n5C4CCC(=O)NC4=O)CC3)cn2)cc1Nc1cccc(-c2ncc(F)cn2)c1OC (stereo not drawn) [Example K172]
< 1	> 100	< 1	CNC(=O)c1cnc(Nc2ccc(CN3CCC(N(C)c4ccc5c(c4)n(C)c(=O)n5C4CCC(=O)NC4=O)CC3)cn2)cc1Nc1cccc(-c2ncc(F)cn2)c1OC (stereo not drawn) [Example K175]
< 1	> 100	< 1	CNC(=O)c1cnc(Nc2ccc(CN3CCN(c4ccc5c(c4)n(C)c(=O)n5C4CCC(=O)NC4=O)CC3)cn2)cc1Nc1cccc(-c2ncc(F)cn2)c1OC (stereo not drawn) [Example K177]
< 1	> 100	< 1	CNC(=O)c1cnc(Nc2ccc(C(=O)N(C)C3CCN(c4ccc5c(c4)n(C)c(=O)n5C4CCC(=O)NC4=O)CC3)cn2)cc1Nc1cccc(-c2ncc(F)cn2)c1OC (stereo not drawn) [Example K178]

More lines, now with the values behind:

Structure (SMILES)	DC50 (TYK2 [1]) [nM]	DC50 (TYK2 [2]) [nM]	DC50 (TYK2 [3]) [nM]
CNC(=O)c1cnc(Nc2ccc(CN3CCCC(c4cccc5c4n(C)c(=O)n5C4CCC(=O)NC4=O)C3)cn2)cc1Nc1cccc(-c2ncc(F)cn2)c1OC (stereo not drawn) [Example K156]	> 100	> 100	> 100
CNC(=O)c1cnc(Nc2ccc(CN3CC(N(C)c4cccc5c4n(C)c(=O)n5C4CCC(=O)NC4=O)C3)cn2)cc1Nc1cccc(-c2ncc(F)cn2)c1OC (stereo not drawn) [Example K161]	1 to 10	> 100	> 100
CNC(=O)c1cnc(Nc2ccc(CN3CCC(c4cccc5c4n(C)c(=O)n5C4CCC(=O)NC4=O)C3)cn2)cc1Nc1cccc(-c2ncc(F)cn2)c1OC (stereo not drawn) [Example K165]	1 to 10	> 100	> 100
CCNC(=O)c1cnc(Nc2ccc(C(=O)N(C)C3CCN(c4cccc5c4n(C)c(=O)n5C4CCC(=O)NC4=O)CC3)cn2)cc1Nc1cccc(-c2ncc(F)cn2)c1OC (stereo not drawn) [Example K169]	1 to 10	> 100	> 100
CNC(=O)c1cnc(Nc2ccc(CN3CCN(c4cccc5c4n(C)c(=O)n5C4CCC(=O)NC4=O)CC3)cn2)cc1Nc1cccc(-c2ncc(F)cn2)c1OC (stereo not drawn) [Example K173]	< 1	> 100	> 100
CNC(=O)c1cnc(Nc2ccc(C3CCN(Cc4cccc5c4n(C)c(=O)n5C4CCC(=O)NC4=O)CC3)cn2)cc1Nc1cccc(-c2ncc(F)cn2)c1OC (stereo not drawn) [Example K174]	1 to 10	> 100	> 100
CNC(=O)c1cnc(Nc2cc(CN3CCN(c4cccc5c4n(C)c(=O)n5C4CCC(=O)NC4=O)CC3)ccn2)cc1Nc1cccc(-c2ncc(F)cn2)c1OC (stereo not drawn) [Example K176]	1 to 10	> 100	< 1
COc1c(Nc2cc(Nc3cc(C(=O)NCCCCc4cccc5c4n(C)c(=O)n5C4CCC(=O)NC4=O)ccn3)ncc2C(=O)NC2CC2)cccc1-c1ncc(F)cn1 (stereo not drawn) [Example K179]	> 100	> 100	10 to 100
COc1c(Nc2cc(Nc3ccc(C(=O)NCCCCc4cccc5c4n(C)c(=O)n5C4CCC(=O)NC4=O)cn3)ncc2C(=O)NC2CC2)cccc1-c1ncc(F)cn1 (stereo not drawn) [Example K180]	10 to 100	> 100	1 to 10
CCNC(=O)c1cnc(Nc2cc(C(=O)NCCCCc3cccc4c3n(C)c(=O)n4C3CCC(=O)NC3=O)ccn2)cc1Nc1cccc(-c2ncc(F)cn2)c1OC (stereo not drawn) [Example K181]	> 100	> 100	1 to 10
CCNC(=O)c1cnc(Nc2ccc(C(=O)NCCCCc3cccc4c3n(C)c(=O)n4C3CCC(=O)NC3=O)cn2)cc1Nc1cccc(-c2ncc(F)cn2)c1OC (stereo not drawn) [Example K182]	10 to 100	> 100	1 to 10
CNC(=O)c1cnc(NC(=O)NCCCCCCCCCc2cccc3c2n(C)c(=O)n3C2CCC(=O)NC2=O)cc1Nc1cccc(-c2ncc(F)cn2)c1OC (stereo not drawn) [Example K183]	> 100	> 100	1 to 10
CNC(=O)c1cnc(NC(=O)NCCCCCCCCc2cccc3c2n(C)c(=O)n3C2CCC(=O)NC2=O)cc1Nc1cccc(-c2ncc(F)cn2)c1OC (stereo not drawn) [Example K184]	> 100	> 100	1 to 10
CNC(=O)c1cnc(NC(=O)NCCCCCCCc2cccc3c2n(C)c(=O)n3C2CCC(=O)NC2=O)cc1Nc1cccc(-c2ncc(F)cn2)c1OC (stereo not drawn) [Example K185]	> 100	> 100	1 to 10
CNC(=O)c1cnc(NC(=O)NCCCCCCCCCc2ccc3c(c2)n(C)c(=O)n3C2CCC(=O)NC2=O)cc1Nc1cccc(-c2ncc(F)cn2)c1OC (stereo not drawn) [Example K186]	> 100	> 100	1 to 10
CNC(=O)c1cnc(NC(=O)NCCCCCCCCc2ccc3c(c2)n(C)c(=O)n3C2CCC(=O)NC2=O)cc1Nc1cccc(-c2ncc(F)cn2)c1OC (stereo not drawn) [Example K187]	> 100	> 100	1 to 10
